Numbered stars: 1 amine (or outer) side, 2 acyl side, 3 side chain; on linkers, the order of the positions; unused ones are H or OH. Peptide text beside a SMILES is read from it. * marks the point of attachment. C20 diacid = O=C(O)CCCCCCCCCCCCCCCCCCC(=O)*; C18 diacid = O=C(O)CCCCCCCCCCCCCCCCC(=O)*; C16 diacid = O=C(O)CCCCCCCCCCCCCCC(=O)*; γGlu = O=C(O)[C@H](CCC(=O)[*:2])N[*:1]; C14 diacid = O=C(O)CCCCCCCCCCCCC(=O)*; AEEA = NCCOCCOCC(=O)O
Columns and labels:
[1] = Assay (IV) determination of solubility; format: physicochemical
Experimental: Assay (IV)—Determination of Solubility
The mimylin peptide was dissolved in water at ˜500 nmol/ml and mixed 1:1 with a series of buffers (100 mM glycylglycine pH 3.0, 100 mM glycylglycine pH 4.0, 100 mM glycylglycine pH 5.0, 100 mM bistrispropane pH 6.0, 100 mM bistrispropane pH 6.5, 100 mM bistrispropane pH 7.0, 100 mM bistrispropane pH 7.5, 100 mM bistrispropane pH 8.0).

rat calcitonin receptor = molecular target: T1, rat calcitonin receptor (Rattus norvegicus, UniProt P32214); assay: Assay (VIII) binding to the rat calcitonin receptor; settings: membranes; read-out: rCT-R binding IC50
T1 construct: expressed in transfected cells; host or cells: BHK tk'ts 13 (transient, FuGENE 6)
T1 sequence (P32214 25-479 isoform P32214-2 limits assumed): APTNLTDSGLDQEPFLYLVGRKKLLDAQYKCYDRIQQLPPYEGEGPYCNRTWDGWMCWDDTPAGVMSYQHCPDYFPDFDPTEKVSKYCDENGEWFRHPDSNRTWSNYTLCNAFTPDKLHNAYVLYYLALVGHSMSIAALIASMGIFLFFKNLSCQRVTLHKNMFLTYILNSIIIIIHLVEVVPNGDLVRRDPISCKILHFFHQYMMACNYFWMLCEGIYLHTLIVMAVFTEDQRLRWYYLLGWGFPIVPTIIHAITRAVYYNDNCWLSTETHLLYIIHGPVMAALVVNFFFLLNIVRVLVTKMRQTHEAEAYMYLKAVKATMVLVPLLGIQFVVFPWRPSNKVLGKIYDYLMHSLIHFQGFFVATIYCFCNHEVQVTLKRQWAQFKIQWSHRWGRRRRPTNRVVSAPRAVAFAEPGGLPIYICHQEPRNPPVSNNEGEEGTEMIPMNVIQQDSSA
Experimental: The morning after, the plates were washed three times in HBSS (4° C.), and lyzed in Lysis buffer (0.1 M NaOH), 1% SDS. Scintillation cocktail (MicroScint40®) was added and the plates were shaken at 500 rpm for a short period. The plate was incubated at room temperature in the dark for 1 hour and Read on a TopCounter™ (Packard). The IC50 was calculated using (one site binding competition analysis) GraphPad Prism5 as a measure of receptor affinity. Assay (VIII)—Determination of Binding to the Rat Calcitonin Receptor
The assay was performed as described above (Assay (VII)—Determination of binding to the human calcitonin receptor) with the exception that we used membranes prepared from BHK tk'ts 13 cells that were transiently transfected with the rat calcitonin receptor. The BHK tk'ts 13 cells were transiently transfected with rat calcitonin receptor using FuGENE® 6 (Roche), according to the manufacturer's recommendations. Cells were grown in DMEM with 10% FBS and 1% Pen/Strep.

| SMILES | Solubility ([1]; pH 3.0) | Solubility ([1]; pH 4.0) | Solubility ([1]; pH 5.0) | Solubility ([1]; pH 6.0) | Solubility ([1]; pH 6.5) | Solubility ([1]; pH 7.0) | Solubility ([1]; pH 7.5) | Solubility ([1]; pH 8.0) | IC50 (rat calcitonin receptor) |
| --- | --- | --- | --- | --- | --- | --- | --- | --- | --- |
| CC(C)C[C@H](NC(=O)[C@H](C)NC(=O)[C@H](C)NC(=O)[C@@H](NC(=O)[C@H](CO)NC(=O)[C@H](CC(C)C)NC(=O)[C@H](CCC(=O)O)NC(=O)[C@H](CO)NC(=O)[C@H](C)NC(=O)COCCOCCNC(=O)CC[C@H](NC(=O)CCCCCCCCCCCCCCCCCCC(=O)O)C(=O)O)[C@@H](C)O)C(=O)NCC(=O)N[C@@H](CCCNC(=N)N)C(=O)N[C@@H](CC(C)C)C(=O)N[C@@H](CO)C(=O)N[C@@H](C)C(=O)N[C@@H](CCC(=O)O)C(=O)N[C@@H](CC(C)C)C(=O)N[C@@H](Cc1cnc[nH]1)C(=O)N[C@@H](CCC(=O)O)C(=O)N[C@@H](CC(C)C)C(=O)N[C@@H](C)C(=O)N[C@H](C(=O)N[C@@H](CC(C)C)C(=O)N1CCC[C@H]1C(=O)N[C@@H](CCCNC(=N)N)C(=O)N[C@H](C(=O)N[C@@H](CCC(=O)O)C(=O)N[C@H](C(=O)NCC(=O)N[C@@H](CO)C(=O)NCC(=O)N[C@@H](CO)C(=O)N1CCC[C@H]1C(N)=O)[C@@H](C)O)[C@@H](C)O)[C@@H](C)O [compound 41, [N-terminal(C20 diacid-gGlu-OEG), des1, 30S, 31G]mimylin] ({C20 diacid-γGlu-AEEA}-ASELSTAALGRLSAELHELATLPRTETGSGSP-NH2) | ≧200 μM | ≧200 μM | ≧200 μM | ≧200 μM | ≧200 μM | ≧200 μM | ≧200 μM | ≧200 μM | 44 pM |
| CC(C)C[C@H](NC(=O)[C@H](C)NC(=O)[C@H](C)NC(=O)[C@@H](NC(=O)[C@H](CO)NC(=O)[C@H](CC(C)C)NC(=O)[C@H](CCC(=O)O)NC(=O)[C@H](CO)NC(=O)[C@H](C)NC(=O)CC[C@H](NC(=O)CCCCCCCCCCCCC(=O)O)C(=O)O)[C@@H](C)O)C(=O)NCC(=O)N[C@@H](CCCNC(=N)N)C(=O)N[C@@H](CC(C)C)C(=O)N[C@@H](CO)C(=O)N[C@@H](C)C(=O)N[C@@H](CCC(=O)O)C(=O)N[C@@H](CC(C)C)C(=O)N[C@@H](Cc1cnc[nH]1)C(=O)N[C@@H](CCC(=O)O)C(=O)N[C@@H](CC(C)C)C(=O)N[C@@H](C)C(=O)N[C@H](C(=O)N[C@@H](CC(C)C)C(=O)N1CCC[C@H]1C(=O)N[C@@H](CCCNC(=N)N)C(=O)N[C@H](C(=O)N[C@@H](CCC(=O)O)C(=O)N[C@H](C(=O)NCC(=O)N[C@@H](CO)C(=O)NCC(=O)N[C@@H](CO)C(=O)N1CCC[C@H]1C(N)=O)[C@@H](C)O)[C@@H](C)O)[C@@H](C)O [compound 50, [N-terminal(C14 diacid-gGlu), des1, 30S, 31G]mimylin] ({C14 diacid-γGlu}-ASELSTAALGRLSAELHELATLPRTETGSGSP-NH2) | ≧200 μM | ≧200 μM | ≧200 μM | ≧200 μM | ≧200 μM | ≧200 μM | ≧200 μM | ≧200 μM | 17 pM |
| CC(C)C[C@H](NC(=O)[C@H](CCCNC(=N)N)NC(=O)CNC(=O)[C@H](CC(C)C)NC(=O)[C@@H](NC(=O)[C@H](C)NC(=O)[C@@H](NC(=O)[C@H](CO)NC(=O)[C@H](CC(C)C)NC(=O)[C@H](CCC(N)=O)NC(=O)[C@H](CO)NC(=O)[C@H](C)NC(=O)CC[C@H](NC(=O)CCCCCCCCCCCCCCCCCCC(=O)O)C(=O)O)[C@@H](C)O)C(C)C)C(=O)N[C@@H](CO)C(=O)N[C@@H](CCC(N)=O)C(=O)N[C@@H](CCCNC(=N)N)C(=O)N[C@@H](CC(C)C)C(=O)N[C@@H](Cc1cnc[nH]1)C(=O)N[C@@H](CCCNC(=N)N)C(=O)N[C@@H](CC(C)C)C(=O)N[C@@H](CCC(N)=O)C(=O)N[C@H](C(=O)N[C@@H](Cc1ccc(O)cc1)C(=O)N1CCC[C@H]1C(=O)N[C@@H](CCCNC(=N)N)C(=O)N[C@H](C(=O)N[C@@H](CCC(N)=O)C(=O)N[C@H](C(=O)NCC(=O)N[C@@H](CO)C(=O)N[C@@H](CCC(N)=O)C(=O)N[C@H](C(=O)N[C@@H](Cc1ccc(O)cc1)C(N)=O)[C@@H](C)O)[C@@H](C)O)[C@@H](C)O)[C@@H](C)O [compound 132, [N-terminal(C20 diacid-gGlu), des1, 4Q, 9V, 15Q, 16R, 19R, 21Q, 23Y, 27Q, 30S, 31Q, 32T, 33Y]mimylin] ({C20 diacid-γGlu}-ASQLSTAVLGRLSQRLHRLQTYPRTQTGSQTY-NH2) | – | – | – | – | – | – | – | – | 69 pM |

The next molecules have a lower IC50 (rat calcitonin receptor) than those just listed; values first:

| Solubility ([1]; pH 3.0) | Solubility ([1]; pH 4.0) | Solubility ([1]; pH 5.0) | Solubility ([1]; pH 6.0) | Solubility ([1]; pH 6.5) | Solubility ([1]; pH 7.0) | Solubility ([1]; pH 7.5) | Solubility ([1]; pH 8.0) | IC50 (rat calcitonin receptor) | SMILES |
| --- | --- | --- | --- | --- | --- | --- | --- | --- | --- |
| ≧200 μM | ≧200 μM | ≧200 μM | ≧200 μM | ≧200 μM | ≧200 μM | ≧200 μM | ≧200 μM | 13 pM | CC(C)C[C@H](NC(=O)[C@H](C)NC(=O)[C@H](C)NC(=O)[C@@H](NC(=O)[C@H](CO)NC(=O)[C@H](CC(C)C)NC(=O)[C@H](CCC(=O)O)NC(=O)[C@H](CO)NC(=O)[C@H](C)NC(=O)CC[C@H](NC(=O)CCCCCCCCCCCCCCC(=O)O)C(=O)O)[C@@H](C)O)C(=O)NCC(=O)N[C@@H](CCCNC(=N)N)C(=O)N[C@@H](CC(C)C)C(=O)N[C@@H](CO)C(=O)N[C@@H](C)C(=O)N[C@@H](CCC(=O)O)C(=O)N[C@@H](CC(C)C)C(=O)N[C@@H](Cc1cnc[nH]1)C(=O)N[C@@H](CCC(=O)O)C(=O)N[C@@H](CC(C)C)C(=O)N[C@@H](C)C(=O)N[C@H](C(=O)N[C@@H](CC(C)C)C(=O)N1CCC[C@H]1C(=O)N[C@@H](CCCNC(=N)N)C(=O)N[C@H](C(=O)N[C@@H](CCC(=O)O)C(=O)N[C@H](C(=O)NCC(=O)N[C@@H](CO)C(=O)NCC(=O)N[C@@H](CO)C(=O)N1CCC[C@H]1C(N)=O)[C@@H](C)O)[C@@H](C)O)[C@@H](C)O [compound 47, [N-terminal(C16 diacid-gGlu), des1, 30S, 31G]mimylin] ({C16 diacid-γGlu}-ASELSTAALGRLSAELHELATLPRTETGSGSP-NH2) |
| ≧200 μM | ≧200 μM | ≧200 μM | ≧200 μM | ≧200 μM | ≧200 μM | ≧200 μM | ≧200 μM | 13 pM | CC(C)C[C@H](NC(=O)[C@H](C)NC(=O)[C@H](C)NC(=O)[C@@H](NC(=O)[C@H](CO)NC(=O)[C@H](CC(C)C)NC(=O)[C@H](CCC(=O)O)NC(=O)[C@H](CO)NC(=O)[C@H](C)NC(=O)CCCCCCCCCCCCCCCCC(=O)O)[C@@H](C)O)C(=O)NCC(=O)N[C@@H](CCCNC(=N)N)C(=O)N[C@@H](CC(C)C)C(=O)N[C@@H](CO)C(=O)N[C@@H](C)C(=O)N[C@@H](CCC(=O)O)C(=O)N[C@@H](CC(C)C)C(=O)N[C@@H](Cc1cnc[nH]1)C(=O)N[C@@H](CCC(=O)O)C(=O)N[C@@H](CC(C)C)C(=O)N[C@@H](C)C(=O)N[C@H](C(=O)N[C@@H](CC(C)C)C(=O)N1CCC[C@H]1C(=O)N[C@@H](CCCNC(=N)N)C(=O)N[C@H](C(=O)N[C@@H](CCC(=O)O)C(=O)N[C@H](C(=O)NCC(=O)N[C@@H](CO)C(=O)NCC(=O)N[C@@H](CO)C(=O)N1CCC[C@H]1C(N)=O)[C@@H](C)O)[C@@H](C)O)[C@@H](C)O [compound 48, [N-terminal(C18 diacid), des1, 30S, 31G]mimylin] ({C18 diacid}-ASELSTAALGRLSAELHELATLPRTETGSGSP-NH2) |
| ≧200 μM | ≧200 μM | ≧200 μM | ≧200 μM | ≧200 μM | ≧200 μM | ≧200 μM | ≧200 μM | 11 pM | CC(C)C[C@H](NC(=O)[C@H](C)NC(=O)[C@H](C)NC(=O)[C@@H](NC(=O)[C@H](CO)NC(=O)[C@H](CC(C)C)NC(=O)[C@H](CCC(=O)O)NC(=O)[C@H](CO)NC(=O)[C@H](C)NC(=O)CCCCCCCCCCCCCCC(=O)O)[C@@H](C)O)C(=O)NCC(=O)N[C@@H](CCCNC(=N)N)C(=O)N[C@@H](CC(C)C)C(=O)N[C@@H](CO)C(=O)N[C@@H](C)C(=O)N[C@@H](CCC(=O)O)C(=O)N[C@@H](CC(C)C)C(=O)N[C@@H](Cc1cnc[nH]1)C(=O)N[C@@H](CCC(=O)O)C(=O)N[C@@H](CC(C)C)C(=O)N[C@@H](C)C(=O)N[C@H](C(=O)N[C@@H](CC(C)C)C(=O)N1CCC[C@H]1C(=O)N[C@@H](CCCNC(=N)N)C(=O)N[C@H](C(=O)N[C@@H](CCC(=O)O)C(=O)N[C@H](C(=O)NCC(=O)N[C@@H](CO)C(=O)NCC(=O)N[C@@H](CO)C(=O)N1CCC[C@H]1C(N)=O)[C@@H](C)O)[C@@H](C)O)[C@@H](C)O [compound 49, [N-terminal(C16 diacid), des1, 30S, 31G]mimylin] ({C16 diacid}-ASELSTAALGRLSAELHELATLPRTETGSGSP-NH2) |
